From BindingDB's records for doi:10.1016/j.bmcl.2008.04.044 (Wyeth Research, 2008) come the findings set out here.

Insulin-like growth factor 1 receptor, sequence (P08069 31-736 limits assumed): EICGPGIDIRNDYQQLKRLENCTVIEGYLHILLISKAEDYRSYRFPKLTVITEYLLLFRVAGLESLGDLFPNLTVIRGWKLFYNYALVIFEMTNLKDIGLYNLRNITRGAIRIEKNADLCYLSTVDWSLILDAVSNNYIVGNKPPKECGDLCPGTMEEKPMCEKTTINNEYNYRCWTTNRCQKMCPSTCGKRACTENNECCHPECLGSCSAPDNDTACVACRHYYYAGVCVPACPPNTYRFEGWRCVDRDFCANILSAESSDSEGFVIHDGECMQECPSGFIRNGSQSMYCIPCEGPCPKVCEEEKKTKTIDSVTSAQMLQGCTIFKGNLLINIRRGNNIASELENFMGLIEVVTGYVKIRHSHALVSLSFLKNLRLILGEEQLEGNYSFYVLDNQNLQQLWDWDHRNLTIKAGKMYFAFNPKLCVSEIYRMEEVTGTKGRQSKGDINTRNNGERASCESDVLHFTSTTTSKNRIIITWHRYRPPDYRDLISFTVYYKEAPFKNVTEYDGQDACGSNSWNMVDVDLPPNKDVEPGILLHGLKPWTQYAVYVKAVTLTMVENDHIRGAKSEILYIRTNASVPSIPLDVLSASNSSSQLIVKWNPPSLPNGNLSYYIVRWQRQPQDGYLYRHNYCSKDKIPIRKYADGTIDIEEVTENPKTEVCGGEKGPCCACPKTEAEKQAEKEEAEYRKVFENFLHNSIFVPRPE
Insulin-like growth factor 1 receptor, sequence (P08069 741-1367 limits assumed): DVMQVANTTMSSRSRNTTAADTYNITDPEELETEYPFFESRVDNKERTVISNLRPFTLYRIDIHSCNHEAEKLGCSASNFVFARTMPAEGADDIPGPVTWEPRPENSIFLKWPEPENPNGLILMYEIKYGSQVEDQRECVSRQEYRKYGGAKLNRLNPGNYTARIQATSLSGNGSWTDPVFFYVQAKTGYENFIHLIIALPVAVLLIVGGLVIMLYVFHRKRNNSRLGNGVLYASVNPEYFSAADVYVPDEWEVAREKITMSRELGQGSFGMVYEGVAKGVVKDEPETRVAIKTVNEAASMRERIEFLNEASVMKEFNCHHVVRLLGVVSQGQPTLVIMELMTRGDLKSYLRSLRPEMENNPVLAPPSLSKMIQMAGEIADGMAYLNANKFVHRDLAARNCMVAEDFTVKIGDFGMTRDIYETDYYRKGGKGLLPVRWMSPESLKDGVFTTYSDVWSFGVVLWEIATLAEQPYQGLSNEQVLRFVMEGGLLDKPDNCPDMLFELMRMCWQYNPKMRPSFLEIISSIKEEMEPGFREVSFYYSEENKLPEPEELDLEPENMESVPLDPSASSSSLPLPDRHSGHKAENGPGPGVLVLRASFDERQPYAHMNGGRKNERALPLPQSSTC

This assay addresses Insulin-like growth factor 1 receptor (Homo sapiens, UniProt P08069). Put plainly: In Vitro Kinase Inhibition Assay. The conditions noted are these: pH 7.5; 22 °C. The protocol:
Assays were performed in microtiter plates in reaction buffer containing biotinylated substrate, ATP, and purified kinase in the presence of test compounds. After incubation, product was detected using a homogeneous time-resolved fluorescence […] assay (LANCE).
In the case of `O=C1NC(=O)c2ccc(Nc3cccc(C(F)(F)F)c3)cc2C1=CNc1ccc(CN2CCCCC2)cc1` [(4Z)-4-({[4-(piperidin-1-ylmethyl)phenyl]amino}methylidene)-6-{[3-(trifluoromethyl)phenyl]amino}-1,2,3,4-tetrahydroisoquinoline-1,3-dione], the IC50 (usually the point on the concentration scale where inhibition reaches its midpoint) was over 10 µM.
The result for `O=C1NC(=O)c2ccc(Nc3ccc4[nH]ccc4c3)cc2C1=CNc1ccc(CN2CCCCC2)cc1` [(4Z)-6-(1H-indol-5-ylamino)-4-({[4-(piperidin-1-ylmethyl)phenyl]amino}methylidene)-1,2,3,4-tetrahydroisoquinoline-1,3-dione] reads over 10 µM; that for `Nc1cccc(Nc2ccc3c(c2)C(=CNc2ccc(CN4CCCCC4)cc2)C(=O)NC3=O)c1` [(4Z)-6-[(3-aminophenyl)amino]-4-({[4-(piperidin-1-ylmethyl)phenyl]amino}methylidene)-1,2,3,4-tetrahydroisoquinoline-1,3-dione], over 10 µM.
Then `O=C1NC(=O)c2ccc(Nc3cccc(Cl)c3)cc2C1=CNc1ccccc1` [(4Z)-6-[(3-chlorophenyl)amino]-4-[(phenylamino)methylidene]-1,2,3,4-tetrahydroisoquinoline-1,3-dione], with over 10 µM; and `COc1cccc(Nc2ccc3c(c2)C(=CNc2ccccc2)C(=O)NC3=O)c1` [(4Z)-6-[(3-methoxyphenyl)amino]-4-[(phenylamino)methylidene]-1,2,3,4-tetrahydroisoquinoline-1,3-dione], with over 10 µM; and `Cc1cccc(Nc2ccc3c(c2)C(=CNc2ccc(CN4CCCCC4)cc2)C(=O)NC3=O)c1` [(4Z)-6-[(3-methylphenyl)amino]-4-({[4-(piperidin-1-ylmethyl)phenyl]amino}methylidene)-1,2,3,4-tetrahydroisoquinoline-1,3-dione], with over 10 µM.
`O=C1NC(=O)c2ccc(Nc3ccc(Cl)cc3)cc2C1=CNc1ccc(CN2CCCCC2)cc1` [(4Z)-6-[(4-chlorophenyl)amino]-4-({[4-(piperidin-1-ylmethyl)phenyl]amino}methylidene)-1,2,3,4-tetrahydroisoquinoline-1,3-dione]: the IC50 is over 10 µM.
`COc1cc(Nc2ccc3c(c2)C(=CNc2ccc(CN4CCCCC4)cc2)C(=O)NC3=O)cc(C(F)(F)F)c1` [(4Z)-6-{[3-methoxy-5-(trifluoromethyl)phenyl]amino}-4-({[4-(piperidin-1-ylmethyl)phenyl]amino}methylidene)-1,2,3,4-tetrahydroisoquinoline-1,3-dione] showed an IC50 of over 10 µM.
The result for `CN(C)c1ccc(Nc2ccc3c(c2)C(=CNc2ccc(CN4CCCCC4)cc2)C(=O)NC3=O)cc1` [(4Z)-6-{[4-(dimethylamino)phenyl]amino}-4-({[4-(piperidin-1-ylmethyl)phenyl]amino}methylidene)-1,2,3,4-tetrahydroisoquinoline-1,3-dione] reads over 10 µM; that for `CCOC(=O)c1ccc(Nc2ccc3c(c2)C(=CNc2ccc(CN4CCCCC4)cc2)C(=O)NC3=O)cc1` [ethyl 4-{[(4Z)-1,3-dioxo-4-({[4-(piperidin-1-ylmethyl)phenyl]amino}methylidene)-1,2,3,4-tetrahydroisoquinolin-6-yl]amino}benzoate], over 10 µM.
